From publication PMC11754443, “Synthesis, H2S releasing properties, antiviral and antioxidant activities and acute cardiac effects of nucleoside 5′-dithioacetates” (Scientific Reports, 2025)
Like-named read-outs stand apart in the source and are kept apart here.

Legend:
[1] = parameters: method as in PMID 26809888; details: administered at the end of sustained ischemia; cited from earlier work
[2] = system: perivascular adipose tissue; parameters: method as in PMID 26120822; details: obese rats, through H2S release; cited from earlier work
[3] = ABTS radical cation decolorization assay; details: 0.1 mM, compared with parent dithioacetates 22 and 24
Method: The ABTS decolorization assay was carried out as described by Szoke et al.[54] Briefly, the method is based on the scavenging of (2,2′-azinobis-(3-ethylbenzothiazoline-6-sulfonic acid) ABTS^•+ radical cation. The decolorization caused by the compound is compared to the decolorization induced by Trolox (6-hydroxy-2,5,7,8-tetramethylchroman-2-carboxylic acid), and expressed as Trolox equivalent antioxidant capacity (TEAC) value. TEAC values were expressed as Trolox equivalents calculated from (Ai − Af)antioxidant/(Ai − Af) Trolox at 0.1 mM concentrations. Briefly, a total of 10 µL sample, 20 µL of Myoglobin Working Solution, and 150 µL of ABTS Substrate Working Solution were mixed and incubated for 5 min at room temperature. At the end of incubation […] of Stop Solution was added and endpoint absorbance at 405 nm was read. All experiments were performed in triplicates and repeated three times.

[4] = DPPH radical scavenging assay; details: for DPPH inhibition ratio after 30 min incubation / DPPH inhibition ratio immediately: 2 mM; for IC50: without extract; for DPPH activity lower than that of ascorbic acid: from IC50 values, relative to ascorbic acid
Method: DPPH is a stable free radical with a deep violet color that changes to yellow when neutralized by an electron or hydrogen radical, indicating the antioxidant activity of the sample being tested. The DPPH radical scavenging abilities were investigated following the method outlined by Shimamura et al., with minor adjustments. In this study, a cardiovascular tissue homogenate was used to induce H2S release from the dithioacetate derivatives 22 and 24, as well as GYY4137. A mixed solution of 1.2 mL of methanol and 800 µL of 0.1 M Tris-HCl buffer (pH 7.4) served as the blank. 1 mL DPPH solution was added to a mixture of methanol and 0.1 M Tris-HCl buffer (200:800 µL). After mixing, the absorbance was recorded at 517 nm on a UV-1600 PC VWR spectrophotometer (VWR, China). To avoid any potential interference from the heart extract in the assay, we measured the absorbance after adding different volumes of the extract into the mixture. These measurements were taken both immediately and after 30 min of incubation.
The DPPH antioxidant assay was performed according to the following procedures. 1 mL of DPPH solution was added to a mixture of 200 µL of the methanolic sample solution and 800 µL of 0.1 M Tris-HCl buffer (pH = 7.4). For the groups containing the extract, the extract was introduced into a mixture of the sample solution in PBS buffer, 0.1 M Tris-HCl buffer, and DPPH (200:800:1000 µL). Considering that GYY4137 produces H2S upon hydrolysis, it was introduced last following the addition of the extract into a solution of PBS buffer, 0.1 M Tris-HCl buffer, and DPPH maintained at the same ratio. The same protocol was employed for NaHS without the addition of the extract. After mixing, the absorbance was promptly recorded, after which the solutions were incubated in the dark at room temperature for 30 min before the absorbance was measured again. The test samples were prepared and assayed at varying concentrations using a 2-fold serial dilution method, starting from a concentration of 2 mM. Each investigation was performed in triplicate, and the antioxidant activity was based on the absorbance recorded at 517 nm. Ascorbic acid (AA), GYY4137, and NaHS served as positive controls, while the unmodified nucleosides were used as reference compounds.
The inhibition ratio (IR) was calculated as follows: [drawing 1] where Ac is the absorbance when methanol is added instead of the sample and As is the absorbance when the testing sample solution is added.
The antioxidant capacity was expressed as the concentration needed to achieve a 50% inhibition of the free radical (IC50). The IC50 values were calculated by plotting the percent of inhibition as a function of sample concentration.

[5] = system: anaesthetized Sprague-Dawley rats; experiment: Cardiac effects by ECG and echocardiography in anaesthetized rats; format: in vivo, rat; details: 2 mg/kg i.v.
Method: The animals received humane care, and all experimental procedures were carried out in accordance with the “Principles of Laboratory Animal Care” by EU Directive 2010/63/EU. All experimental protocols were approved by the local Ethics Committee of University of Debrecen (25/2023/DEMÁB). Animal experiments are reported in compliance with the ARRIVE guidelines. Anesthesia was carried out using ketamine/xylazine mixture (100/10 mg/kg, i.m.). The chest was shaved and the animal was placed onto a heated pad (VisualSonics SR200, VisualSonics, Amsterdam, The Netherlands). The lateral tail vein was cannulated using a heparinized 26G i.v. cannula (BD Neoflon, BD Medical, NJ, USA). B-mode and M-mode echocardiography was carried out before and 30 s after the intravenous administration of the compounds. A high-resolution ultrasound machine (Vevo 3100 Imaging Station, VisualSonics, Amsterdam, The Netherlands) equipped with a […] transducer (MX201) was used for assessing cardiac parameters. Traces were obtained from the parasternal long axis view (PLAX). A B-mode video and an M-mode trace was recorded, and the following parameters were then offline analysed: left ventricle (LV) end-systolic and end-diastolic volume (LVESV, LVEDV, respectively) fractional shortening (FS) and ejection fraction (EF) and stroke volume (SV).
A 3-channel ECG was continuously recorded during the experiments (Vevo monitor ECG, VisualSonics, Amsterdam, The Netherlands). On the recorded ECG data, RR, PR and QT intervals, and heart rate (HR) were determined before and 30 s after the administration of the drugs, and 6 consecutive cardiac cycles were averaged for each parameter.
Statistical analyses for the in vivo studies were carried out using the GraphPad Prism 9.0 software (GraphPad Software, San Diego, CA, USA). Data distribution was assessed by the Shapiro-Wilk normality test, and paired t-test were used to determine the differences between the baseline (drug free) and endpoint (treated) parameters in each group. A multiple comparison was also carried out between the treatment groups by using one-way ANOVA with Tukey multiple comparison test. Data was shown as mean ± SD, and differences with p < 0.05 were considered significant.

[6] = Cytotoxicity in Calu-3 cells (CellTiter-Glo); format: cell-based, human; details: human
Method: Cytotoxicity was evaluated by incubating the same two-fold serial dilutions of each compound with Calu-3 cells as above in the absence of the virus. Following two days incubation at 37 °C in 5% CO2, the cell viability was determined as above. The compound concentrations resulting in 50% reduction of cell viability (CC50) were calculated from plots of percentage of luminescence versus log10 drug concentration as above. Remdesivir was used as control in both assays.

[7] = system: SARS-CoV-2 (strain hCoV-19/Czech Republic/NRL_6632_2/2020); experiment: Anti-SARS-CoV-2 cytopathic-effect-based assay in Calu-3 cells (CellTiter-Glo); format: cell-based; details: Severe acute respiratory syndrome coronavirus 2, compound added 2 h after infection, MOI 0.3, read after two days, read-out: EC50 ± SE, anti-SARS-CoV-2 activity
SARS-CoV-2 = format: cell-based; details: medium of Calu-3 cells infected 2 days at the highest compound concentration, plaque assay in Vero E6 cells
[8] = after 30 min incubation, read-out: DPPH IC50 30 min
[9] = measured immediately, read-out: DPPH IC50 immediately
[10] = anaesthetized SD rats, 30 s after administration, mean ± SD

SMILES	effect on anti-contractile effects of perivascular adipose tissue [2]	ABTS antioxidant activity (Trolox equivalents), in words [3]	DPPH inhibition ratio after 30 min incubation ([4]; after 30 min incubation) [%]	DPPH inhibition ratio immediately [4]	IC50 [4, 8] [µM]	DPPH activity lower than that of ascorbic acid [4] [times]	IC50 [4, 9] [µM]	other results
NC(=S)c1ccc(OC[C@H]2O[C@@H](n3cnc4c(N)ncnc43)[C@H](O)[C@@H]2O)cc1 [Compound 1]								effect on infarct size [1]: significantly reduced infarct size
Nc1ncnc2c1ncn2[C@@H]1O[C@H](COP(O)(O)=S)[C@@H](O)[C@H]1O [Compound 2]	restore the anti-contractile effects of perivascular adipose tissue in obese rats							
Nc1nc2c(ncn2[C@@H]2O[C@H](COP(O)(O)=S)[C@@H](O)[C@H]2O)c(=O)[nH]1 [Compound 3]	restore the anti-contractile effects of perivascular adipose tissue in obese rats							
O=c1ccn([C@@H]2O[C@H](CS)[C@@H](O)[C@H]2O)c(=O)[nH]1 [Compound 32, 5′-Thiouridine]		higher antioxidant activity than the parent dithioacetate derivatives	90	70–80%	570	10	710	
Nc1ncnc2c1ncn2[C@@H]1O[C@H](CS)[C@@H](O)[C@H]1O [Compound 34, 5′-Deoxy-5′-thioadenosine]		higher antioxidant activity than the parent dithioacetate derivatives	90	70–80%	580	10	720	Ejection Fraction [5, 10]: 82.14±5.877%; Heart rate [5, 10]: 97.25±24.66 bpm; PR interval [5, 10]: 49.43 ± 6.973 ms; QT interval [5, 10]: 158.3 ± 35.8 ms; Stroke Volume [5, 10]: 335.6 ± 68.82 µL; duration of negative chronotropic action compared with adenosine ([5]; anaesthetized rats): their duration of action was longer; heart block (in words) ([5]; anaesthetized rats): None of the new compounds (22, 24, and 34) induced complete heart block or pauses
CCC(CC)COC(=O)[C@H](C)N[P@](=O)(OC[C@H]1O[C@@](C#N)(c2ccc3c(N)ncnn23)[C@H](O)[C@@H]1O)Oc1ccccc1 [Remdesivir, reference compound]								CC50 at 2 days [6]: > 10 µM; EC50 [7]: 500 ± 260 nM; SARS-CoV-2 titer reduction (SARS-CoV-2): 7.1 log10 PFU/mL
